Measured values published in PubChem BioAssay (NCI).
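In this assay, cells in 96-well plates receive the compound at five concentrations for 48 hours. Endpoints are linearly interpolated between the surrounding concentrations. TGI denotes the concentration required for complete inhibition of growth.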

Columns and labels:
Test in all cases: inhibition of tumour cell growth, NCI panel, 48 h
[1] = tested on: MCF7 breast
[2] = tested on: CCRF-CEM leukemia
[3] = tested on: MDA-N
[4] = tested on: OVCAR-4 ovarian
[5] = tested on: SNB-75 CNS
[6] = tested on: LOX IMVI melanoma
[7] = tested on: SF-539 CNS
[8] = tested on: SN12C renal
[9] = tested on: HOP-92 NSCLC
[10] = tested on: A549 NSCLC
[11] = tested on: SR leukemia

| SMILES | TGI [1] | TGI [2] | TGI [3] | TGI [4] | TGI [5] | TGI [6] | TGI [7] | TGI [8] | TGI [9] | TGI [10] | TGI [11] |
| --- | --- | --- | --- | --- | --- | --- | --- | --- | --- | --- | --- |
| CCC(C)[C@H](NC(=O)[C@H](Cc1ccccc1)NC(=O)N(CC)c1ccccc1)C(=O)N[C@@H](CC(C)C)C(=O)OC (stereo partly specified) | > 100 µM | 66.7 µM | > 100 µM | > 100 µM | > 100 µM | > 100 µM | 93.8 µM | > 100 µM | > 100 µM | > 100 µM |  |
| O=C(CSCC(=O)N/N=C/c1cc(I)cc(I)c1O)N/N=C/c1cc(I)cc(I)c1O | 70.7 µM |  |  | > 100 µM | 19.5 µM |  | 38.1 µM | > 100 µM | > 100 µM | > 100 µM | 14 µM |
| COc1ccc2oc(=N)c(C(=O)Nc3cccc4ccccc34)cc2c1 | 63.9 µM | > 100 µM | 18.8 µM | 40.3 µM | 32.9 µM |  | > 100 µM | > 100 µM |  | > 100 µM | 28.5 µM |
| COc1ccc(Cn2c(C)nc3c2C(=O)c2ccccc2C3=O)cc1 |  | 37.3 µM |  | 64.1 µM | 71.9 µM | 11.2 µM | 38.2 µM | > 75 µM |  | 36.1 µM | 10.4 µM |
| CCCC(=O)O |  | > 18700 µM | > 18700 µM | > 18700 µM | > 18700 µM | 8470 µM | 16900 µM | > 18700 µM | 14200 µM | > 18700 µM | 5340 µM |
| C=C(C)[C@@]1(O)O[C@H]2C[C@@]3(C)OC(=CC3=O)/C(C)=C\[C@@H]3OC(=O)[C@@]1(C)[C@H]32 | 29.1 µM | 24.1 µM |  | > 100 µM | 68.3 µM | 29.2 µM | 56 µM | 34.9 µM | 41.3 µM | > 93.3 µM | > 64.4 µM |
| O=S(=O)(Oc1ccc2oc3ccccc3c2c1-c1c(OS(=O)(=O)C(F)(F)F)ccc2oc3ccccc3c12)C(F)(F)F | > 100 µM | > 100 µM |  | > 100 µM | > 100 µM | > 100 µM | > 100 µM |  | > 100 µM | > 100 µM | > 100 µM |
| C1CC2=C(C1)[Se]C(=C1Sc3nsnc3S1)[Se]2 | > 100 µM | > 100 µM | 62 µM | > 100 µM | > 100 µM | > 100 µM | > 100 µM | > 100 µM | > 100 µM | > 100 µM |  |
| CNC(=O)c1ccccc1-[s+]1c2ccccc2c(=O)n1C (stereo unspecified) | > 100 µM | > 100 µM | > 100 µM | > 100 µM |  | > 100 µM | > 100 µM | > 100 µM | > 100 µM | > 100 µM |  |
| c1csc(-c2ccc(-c3ccc(-c4ccc(-c5cccs5)s4)s3)s2)c1 | > 100 µM | 53.8 µM |  |  | > 100 µM |  | > 100 µM | > 100 µM | > 100 µM |  | > 100 µM |
| COc1c2c(c3c(c1C1OC(C)[C@@H](C)O1)CC(C)(C)O3)C(=O)c1ccccc1C2=O (stereo partly specified) |  | 53.2 µM |  | > 100 µM | > 100 µM | 28.6 µM | > 100 µM | > 100 µM | 89.7 µM | > 100 µM | 68.2 µM |
| CO/C(=N\N=C\c1cc(OC)ccc1OC)c1ccncc1 | > 10 µM | > 10 µM | > 10 µM |  | > 10 µM | > 10 µM | > 10 µM | > 10 µM |  | > 10 µM | > 10 µM |
| O=c1cc(CNC2CCCC2)[nH]c(=O)[nH]1 | > 100 µM | > 100 µM | > 100 µM | > 100 µM | > 100 µM | > 100 µM | > 100 µM | > 100 µM |  | > 100 µM | > 100 µM |
| CCN(CC)CCNC(=O)c1ccccc1NC(=O)C(=O)Nc1ccccc1C(=O)NCCN(CC)CC |  | 71.9 µM |  | > 100 µM | > 100 µM | 73.6 µM | 62.2 µM | > 100 µM | 98.5 µM | > 100 µM | 47.6 µM |
| Cc1nc2c(=S)[nH]ncc2[nH]1 | > 100 µM | > 100 µM | > 100 µM | > 100 µM | > 100 µM | > 100 µM | > 100 µM | > 100 µM | > 100 µM | > 100 µM |  |
| O=C1N[C@H]2c3c(Cl)sc(Cl)c3/C(=N/O)[C@H]2O1 | > 100 µM | > 100 µM | > 100 µM |  | > 100 µM |  | > 100 µM | > 100 µM |  | > 100 µM | > 100 µM |
| O=C(CP(c1ccccc1)c1ccccc1)c1cccc(C(=O)CP(c2ccccc2)c2ccccc2)c1 | > 100 µM | > 100 µM | > 100 µM | > 100 µM | > 100 µM |  | > 100 µM | > 100 µM |  | > 100 µM | 61.5 µM |
| CC(=O)OCC1OC(Nc2[nH]c(=O)n(C)c(=O)c2-c2csc(N)n2)C(OC(C)=O)C(OC(C)=O)C1OC(C)=O (stereo unspecified) |  | > 100 µM |  | > 100 µM | > 100 µM | > 100 µM | > 100 µM | > 100 µM | > 100 µM | > 100 µM | > 100 µM |
| C1=C(c2ccccc2)CN(c2ccccc2)OC1 |  | > 100 µM |  |  | > 100 µM | > 100 µM | > 100 µM | > 100 µM |  | > 100 µM | > 100 µM |
| O=C(O)[C@H]1[C@@H](C2CCCCC2)O[C@@H](C2CCCCC2)O[C@H]1C(F)(F)F |  | 47.7 µM | 30.7 µM | > 100 µM | 38.2 µM | 36.5 µM | > 100 µM | 38.5 µM | 61.3 µM | 42.4 µM | 46.9 µM |
| Cc1ccc(C)n1-c1ccccc1C1SCCCS1 | > 100 µM | > 100 µM | > 100 µM | > 100 µM | > 100 µM | > 100 µM | > 100 µM | > 100 µM | > 100 µM | > 100 µM |  |
| COc1ccc(/C=C2\CN(C)Cc3c2nc(N)nc3-c2ccc(OC)cc2)cc1 |  | > 100 µM |  |  | > 100 µM | > 100 µM | > 100 µM | > 100 µM |  | > 100 µM |  |
